What was measured:
parasitic nematodes = test: Nematode analysis of soil samples from the treated field; type: in vivo; settings: any tested soil samples
Method: (§1) Soil Analysis. Soil samples were obtained at 20, 40, and 60 cm before application and every 24 hours beginning 48 hours after application, for seven days.
Plant Pathology Analysis. Soil samples used for Panama Disease and nematode analyses were aseptically isolated in culture medium and incubated for seven days at room temperature. Organisms were identified as follows: 20 grams of composite soil sample was diluted with 40 mL distilled water (dH2O); 1 drop of Tween 20 detergent was added, and the sample mixed. A 1 mL aliquot was taken from the solution and diluted with 9 mL dH2O; three further serial dilutions were made. From each dilution, 100 μL were spread on solid Komada growth medium (Sun et al., Phytopathology 68: 1672-1673, 1978). Growth could be seen 7 days after inoculation.

[1] = system: F. oxysporum f. sp. cubense; test: Panama disease analysis of soil samples from the treated field (Komada medium); type: in vivo, Fusarium oxysporum f. sp. cubense Tropical Race 4; settings: any of the treated groups (750-3000 L/ha); any day post application
Method: (§2) Metam Sodium Application. Metam sodium 510 SL (equivalent to 42% w/w) was applied to soil at the following doses: 0 liters per hectare (L/ha), 750 L/ha, 1500 L/ha, 2250 L/ha, 3000 L/ha.
(§3) Prior to injection, soil was prepared using a rototiller to break the soil structure from 0 cm to 80 cm deep, allowing for the smooth and even injection application by an injection machine. The soil was then leveled and made uniform, and the metam sodium was applied at two depths: 30 cm and 60 cm, using injection methods. The temperature was at a minimum of 10 °C and soil humidity was between 50 and 60% holding capacity, allowing the applied product to transform from metam sodium (liquid) to MITC (gas).
(§4) The application was made using an injection machine wherein the machine lowered shanks and began moving forward such that the shanks lowered to a depth of 60 cm and injectors applied the metam sodium into the soil. When the injection at 60 cm was complete, the process was repeated for the entire field at 30 cm. The treated soil in the field was then sealed using a packer roller (which was part of the injection machinery, located at the back end of the machine), after each application.
as §1
Plant Pathology Analysis. […]

Foc TR4 chlamydospores = test: In vitro efficacy of metam sodium on Foc TR4 chlamydospores (colonies on PDA plates); type: cell-based, Fusarium oxysporum f. sp. cubense Tropical Race 4
Method: Foc TR4 chlamydospores were extracted from infested soil and incubated with a dilution series of metam sodium for 5 min and 60 min at room temperature. Thereafter, the samples were diluted 10×to get reduction of the treatment and sufficient dilution of chlamydospores to avoid lack of resolution when grown on plate. Aliquots of 100 μl were plated on PDA plates in duplicate and incubated for 3 days at 25° C. Plates were photographed and scored.

Cavendish banana plants = test: Field trial: growth and development of banana plants transplanted into metam sodium treated soil; type: in vivo, Musa (Cavendish banana)
Method: The analyses described in this example were carried out in the Philippines in a field in which Musa trees (specifically bananas) were to be planted, in the spring (beginning in March). Final determinations were carried out in September of the same year.
as §2, §3, §4
Plant Selection and Transplantation. Cavendish banana plants were used for this investigation. In order to avoid plants already contaminated by other soil, all plants were produced in vitro using art-recognized methods. Plants were transplanted into the field 14 days after the final soil reading was taken (21 days after treatment).
Data Gathering. Data were gathered at monthly intervals beginning three months after banana plants were transplanted. A total of three data collection sessions were conducted. Data including the number of leaves, plant height, and girth size were collected.

[2] = 750 L/ha, six months after treatment
[3] = 1500 L/ha, six months after treatment
[4] = 2250 L/ha, six months after treatment
[5] = 3000 L/ha, six months after treatment

## CNC(=S)[S-].[Na+] [metam sodium, sodium N-methyldithiocarbamate]
Parasitic nematodes
  parasitic nematodes in soil: no parasitic nematodes were noted
[1]
  Foc TR4 in soil (soil contamination): No Foc TR4 was detected
Foc TR4 chlamydospores; 100× dilution, prolonged incubation (60 vs 5 minutes)
  reducing the number of surviving chlamydospores, measured as growing colonies: more effective
Foc TR4 chlamydospores; dilution of 10×, incubation time 5 minutes
  efficacy on Foc TR4 colony growth on plates: effective
Foc TR4 chlamydospores; dilution of 100×, 5 and 60 minutes
  efficacy on Foc TR4 colony growth on plates: less effective
Foc TR4 chlamydospores; first test, dilutions from 1000 up to 10×10^6-fold, 60 min
  reduction in viability of Foc TR4 chlamydospores: No significant reduction in viability
Foc TR4 chlamydospores; overall, dependent on high concentrations
  efficacy against Foc TR4 chlamydospores under in vitro conditions: effective against Foc TR4 chlamydospores
Foc TR4 chlamydospores; second test, 10× and 100× dilutions
  efficacy on surviving chlamydospores: (partially) effective
Foc TR4 chlamydospores; second test, dilutions of 1000× and more
  number of chlamydospores that survived: did not affect the number of chlamydospores that survived
Cavendish banana plants; 750 L/ha
  average girth size of banana plant, increase: ~1 cm
  average height of banana plant, increase: ~5 cm
Cavendish banana plants; [2]
  percent of plants at either shooting or bagging stage: 11%
  percent of plants at shooting stage: 9%
  plants reaching bagging stage: did not have a meaningful effect
Cavendish banana plants; 1500-3000 L/ha
  average girth size of banana plant, increase: 4-6 cm
  average height of banana plant, increase: 20-23 cm
Cavendish banana plants; [3]
  percent of plants at either shooting or bagging stage: 28%
  percent of plants at shooting stage: 10%
Cavendish banana plants; 1500 to 3000 L/ha, six months after treatment
  percent of plants at bagging stage: 11-19%
Cavendish banana plants; [4]
  percent of plants at either shooting or bagging stage: 27%
  percent of plants at shooting stage: 17%
Cavendish banana plants; [5]
  percent of plants at either shooting or bagging stage: 35%
  percent of plants at shooting stage: 22%
Cavendish banana plants; regardless of dose applied (750-3000 L/ha), vs 0 L/ha
  average number of leaves, increase: roughly 1.5 fold
